Experimental data as given in ChEMBL document CHEMBL1201862, “PubChem BioAssay data set” (2004).
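Method: 48-hour compound exposure of cells in 96-well plates, five concentrations, linear interpolation of endpoints. GI50 = concentration required for 50% inhibition of growth.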 Active and inactive are the calls of the source. Cut-off read from the data, not from the text of the source: active = GI50 up to about 1.1 µM and inactive = higher. Peptide text beside a SMILES is read from it. * marks the point of attachment. Trt = c1ccc(C(c2ccccc2)(c2ccccc2)*)cc1; Cbz = O=C(OCc1ccccc1)*

Assays:
Experiment in all cases: NCI-60 cell line screen, 48 h
MDA-MB-231 = test system: MDA-MB-231
CCRF-CEM = test system: CCRF-CEM
EKVX = test system: EKVX
HOP-92 = test system: HOP-92
K562 = test system: K562
SN12C = test system: SN12C
NCI-H23 = test system: NCI-H23
CAKI-1 = test system: CAKI-1
MCF7 = test system: MCF7
OVCAR-8 = test system: OVCAR-8
A498 = test system: A498
HCC 2998 = test system: HCC 2998
UACC-257 = test system: UACC-257
DU-145 = test system: DU-145
TK-10 = test system: TK-10
ACHN = test system: ACHN
OVCAR-3 = test system: OVCAR-3
SW-620 = test system: SW-620
SF-268 = test system: SF-268
SR = test system: SR

| Structure (SMILES) | GI50 (MDA-MB-231) | GI50 (CCRF-CEM) | GI50 (EKVX) | GI50 (HOP-92) | GI50 (K562) | GI50 (SN12C) | GI50 (NCI-H23) | GI50 (CAKI-1) | GI50 (MCF7) | GI50 (OVCAR-8) | GI50 (A498) | GI50 (HCC 2998) | GI50 (UACC-257) | GI50 (DU-145) | GI50 (TK-10) | GI50 (ACHN) | GI50 (OVCAR-3) | GI50 (SW-620) | GI50 (SF-268) | GI50 (SR) |
| --- | --- | --- | --- | --- | --- | --- | --- | --- | --- | --- | --- | --- | --- | --- | --- | --- | --- | --- | --- | --- |
| CCc1c(Cl)c(C)cc(O)c1Cl | 40.7 µM (inactive) | 25.7 µM (inactive) | 36.2 µM (inactive) | 23.2 µM (inactive) | 33.7 µM (inactive) | 16.7 µM (inactive) | 34.8 µM (inactive) | 74.1 µM (inactive) | 32 µM (inactive) | 44.3 µM (inactive) | 18.8 µM (inactive) | 1.71 µM (inactive) | 29.6 µM (inactive) | > 100 µM (inactive) | > 100 µM (inactive) | 22.1 µM (inactive) | 52 µM (inactive) | 20.6 µM (inactive) | 53.8 µM (inactive) |  |
| O=C(O)c1ccc(NNC(=O)c2cccc3c(=O)c4ccccc4[nH]c23)cc1 | 75.3 µM (inactive) | 66.2 µM (inactive) | 57.9 µM (inactive) | 65 µM (inactive) | 58.6 µM (inactive) | > 100 µM (inactive) | > 100 µM (inactive) | > 100 µM (inactive) | > 100 µM (inactive) | > 100 µM (inactive) |  | > 100 µM (inactive) | > 100 µM (inactive) | > 100 µM (inactive) | > 100 µM (inactive) | 74.1 µM (inactive) | > 100 µM (inactive) | > 100 µM (inactive) | > 100 µM (inactive) | 93.5 µM (inactive) |
| O=C1OC(=O)C2CCCC3CCCC1C32 (stereo not given) | > 100 µM (inactive) | > 100 µM (inactive) | > 100 µM (inactive) | > 100 µM (inactive) | > 100 µM (inactive) | > 100 µM (inactive) | > 100 µM (inactive) | > 100 µM (inactive) | > 100 µM (inactive) | > 100 µM (inactive) | > 100 µM (inactive) | > 100 µM (inactive) | > 100 µM (inactive) | > 100 µM (inactive) | > 100 µM (inactive) | > 100 µM (inactive) | > 100 µM (inactive) | > 100 µM (inactive) | > 100 µM (inactive) |  |
| C=C1C(C[C@@H]2O[C@H]3C[C@H]4O[C@@]5(C[C@@H]6O[C@]7(C[C@H](C)[C@@H]8O[C@@H]9CC(C(O)CO)O[C@@H]9C[C@@H]8O7)C[C@H](C)[C@@H]6O5)C[C@H]4O[C@H]3[C@H](C)[C@H]2O)O[C@@H](CC[C@@H]2O[C@@H](CC[C@@]34CC5O[C@H]6C(O[C@H]7CC[C@H](CC(=O)OC)O[C@@H]7[C@@H]6O3)[C@H]5O4)CC2=C)C[C@H]1C (stereo not given in full) | 0.00632 µM (active) | < 0.0001 µM (active) | 0.000405 µM (active) |  | < 0.0001 µM (active) | 0.000211 µM (active) | < 0.0001 µM (active) | 0.000286 µM (active) | < 0.0001 µM (active) | 0.000209 µM (active) |  | < 0.0001 µM (active) | < 0.0001 µM (active) | < 0.0001 µM (active) | 0.0152 µM (active) | 0.000658 µM (active) | < 0.0001 µM (active) | < 0.0001 µM (active) | 0.000184 µM (active) | < 0.0001 µM (active) |
| Nc1ncnc2c1ccn2COC(CO)CO | > 100 µM (inactive) | > 100 µM (inactive) | > 100 µM (inactive) | > 100 µM (inactive) | > 100 µM (inactive) | > 100 µM (inactive) | > 100 µM (inactive) | > 100 µM (inactive) | 92 µM (inactive) | > 100 µM (inactive) | > 100 µM (inactive) | > 100 µM (inactive) | > 100 µM (inactive) | > 100 µM (inactive) | > 100 µM (inactive) | > 100 µM (inactive) | > 100 µM (inactive) | > 100 µM (inactive) | > 100 µM (inactive) |  |
| CCN(CC)CCC(=O)/C=C/c1ccc(Cl)c(Cl)c1 | 3.48 µM (inactive) | 2.45 µM (inactive) | > 10 µM (inactive) | > 10 µM (inactive) | 3.68 µM (inactive) | 1.86 µM (inactive) | > 10 µM (inactive) |  | 3.36 µM (inactive) | 4.21 µM (inactive) |  | 3.36 µM (inactive) | > 10 µM (inactive) | > 10 µM (inactive) | 2.65 µM (inactive) | 3.03 µM (inactive) | 8.61 µM (inactive) | 2.55 µM (inactive) | 3.05 µM (inactive) | 2.83 µM (inactive) |
| COC(=O)C(CO)NC(=O)C(CSC(c1ccccc1)(c1ccccc1)c1ccccc1)NC(=O)OCc1ccccc1 (stereo not given) (Cbz-Cys(Trt)-Ser-OMe; configuration not given here) | 13.8 µM (inactive) | 0.0398 µM (active) | 16 µM (inactive) | 15.2 µM (inactive) | 15.3 µM (inactive) | 13.3 µM (inactive) | 17.9 µM (inactive) | 16.6 µM (inactive) | 14.8 µM (inactive) | 14.5 µM (inactive) |  | 14.9 µM (inactive) |  | 19.1 µM (inactive) | 24.5 µM (inactive) | 21.2 µM (inactive) | 13.6 µM (inactive) | 15.5 µM (inactive) | 17.7 µM (inactive) | 0.158 µM (active) |
